From US12310947B2, “Methods and compositions for unsilencing imprinted genes” (priority 2019, dated 2025)
Entries after “also recorded” stand apart in the source; their conditions may differ.

How the values were obtained:
[1] = system: paternal Ube3a-YFP; assay: Western blot of UBE3A-YFP protein (anti-GFP) in Ube3a^m+/pYFP cortical neurons; format: cell-based, mouse; conditions: Topotecan 0.3 μM, PHA533533 1.0 μM; for UBE3A-YFP protein from the paternal allele (western blot): 72 hr, Compound X 0.5 μM, Compound Y 0.5 μM, EPZ5676 3 μM, EPZ5676 1 μM with P5-A4 1 μM, analogues 1 μM; for unsilencing of paternal Ube3a-YFP with CDK2 knocked down: CDK2 shRNA knockdown; for unsilencing of paternal Ube3a-YFP with CDK5 knocked down: CDK5 shRNA knockdown
Procedure: Cultured cortical neurons were infected at DIV 3 and virus was removed the next day (DIV 4). Neurons were further cultured and treated at DIV 10 with vehicle (0.1% DMSO) or the indicated compounds. To perform western blot analysis, the cultured neurons from 6-well plates were harvested and total protein was extracted with protein extraction buffer 72 hr after drug treatment, Bradford assays were performed to measure protein concentration, and 30 μg of total protein was loaded for Bis-polyacrylamide gel electrophoresis (Bio-Rad). Electrophoresed proteins were transferred to nitrocellulose membrane (0.45 μm, Bio-Rad). Membranes were blocked with 5% non-fat milk in 1×TBS-T at room temperature for 30 min followed by overnight 4° C. incubation with primary antibodies [rabbit anti-GFP (1:1000, Novus Biologicals), rabbit anti-Ube3a (1:1000, Bethyl Lab), rabbit anti-H3K79Me2 (1:1000, Abcam), rabbit anti-H3K79Me3 (1:1000, Abcam), and mouse anti-β-actin (1:5000, Sigma)]. The next day, the immunoblot membranes were rinsed with 1×TBS-T three times and incubated with HPR-conjugated secondary antibodies for 1 hr at room temperature (goat anti-rabbit @ 1:1000 or goat anti-mouse @ 1:1000, Vector Labs). Following secondary antibody incubation, the membranes were rinsed (4-5 times) with 1×TBS-T at room temperature for 1 hr and ECL (Bio-Rad) was used to visualize detected proteins using an Amersham Imager 600 (AI600, GE Life Sciences).

[2] = system: DOT1L; assay: Western blot of H3K79 methylation (anti-H3K79me2, anti-H3K79me3) in cortical neurons; format: cell-based, mouse; conditions: PHA533533 1.0 μM, Compound X 0.5 μM, EPZ5676 3 μM
Description: shRNA knockdown and western blot analysis: Lentiviral shRNAs of Top1 (TRCN0000011884), CDK2 (TRCN0000023146), and CDK5 (TRCN0000009520) were generated using previously described techniques. Cultured cortical neurons were infected at DIV 3 and virus was removed the next day (DIV 4). Neurons were further cultured and treated at DIV 10 with vehicle (0.1% DMSO) or the indicated compounds. To perform western blot analysis, the cultured neurons from 6-well plates were harvested and total protein was extracted with protein extraction buffer 72 hr after drug treatment, Bradford assays were performed to measure protein concentration, and 30 μg of total protein was loaded for Bis-polyacrylamide gel electrophoresis (Bio-Rad). Electrophoresed proteins were transferred to nitrocellulose membrane (0.45 μm, Bio-Rad). Membranes were blocked with 5% non-fat milk in 1×TBS-T at room temperature for 30 min followed by overnight 4° C. incubation with primary antibodies [rabbit anti-GFP (1:1000, Novus Biologicals), rabbit anti-Ube3a (1:1000, Bethyl Lab), rabbit anti-H3K79Me2 (1:1000, Abcam), rabbit anti-H3K79Me3 (1:1000, Abcam), and mouse anti-β-actin (1:5000, Sigma)]. […] Following secondary antibody incubation, the membranes were rinsed (4-5 times) with 1×TBS-T at room temperature for 1 hr and ECL (Bio-Rad) was used to visualize detected proteins using an Amersham Imager 600 (AI600, GE Life Sciences).

[3] = system: paternal Ube3a-YFP; assay: High-content imaging of paternal UBE3A-YFP in cultured cortical neurons (GFP antibody-enhanced fluorescence); format: cell-based, mouse; conditions: for percent of neurons expressing UBE3A-YFP above threshold: cultured mouse cortical neurons, 72 hr treatment, n=4, DMSO control 0.03±0.004%; for unsilencing of paternal Ube3a-YFP by imaging, in words: library screen at 1 μM or dose response, 72 hr
Procedure: (§1) Cell culture and drug treatment: Primary cortical neurons were isolated and cultured by following established protocol. Briefly, cortical neurons were isolated from embryos (E13.5-15.5) carrying paternal Ube3a-YFP (Ube3a^m+/pYFP) or maternal deletion of Ube3a (Ube3a^m−/p+). Isolated cortical neurons were plated onto 384-well plates coated with poly-D-lysine (2.0×10^4 cell/well) for high-content imaging analysis or 6-well plates coated with poly-D-lysine (1.0×10^6 cells/well) for molecular and biochemical assays (western blot analysis, quantitative RT-PCR, and shRNA knockdown). Cultured neurons were maintained for 7 days, replacing medium every 3-4 days. On day 7 (DIV 7), the indicated compounds were added at 0.3-1 μM to neurons for 72 hr to unsilence paternal Ube3a or Ube3a-YFP.
Fluorescence immunocytochemistry and high content imaging analysis: Fluorescent immunocytochemistry and high content imaging analysis were performed by following previously described protocols with slight modifications. After 72 hr drug treatment, the neurons were fixed with 4% paraformaldehyde in 1×PBS at room temperature for 10 min. After brief washing with 1×PBS three times, neurons were permeabilized with 1% Triton-X 100 in 1×PBS at room temperature for 15 min, followed by blocking with 5% normal goat serum in 0.1% Triton-X 100 in 1×PBS at room temperature. 60 min after blocking, neurons were incubated with primary antibody, rabbit anti-GFP (1:1000, Novus Biologicals), at 4° C. overnight. Neurons were then briefly washed with 1×PBS followed by incubation with secondary antibody, goat anti-rabbit Alexa Fluor 488 (1:500, Thermo Fisher/Invitrogen) and Hoechst 33342 (Thermo Fisher), at room temperature for 60 min. Following secondary antibody incubation, neurons were washed with 1×PBS and fluorescent images were acquired using a BD Pathway 855 bioimager. All acquired images were analyzed by CellProfiler.
Fluorescence immunocytochemistry and high content imaging analysis: After 72-hour drug treatment, the neurons were fixed with 4% paraformaldehyde in phosphate-buffered saline (PBS) at room temperature for 10 min. After brief washing with PBS three times, neurons were permeabilized with 1% Triton-X 100 in PBS at room temperature for 10 min, followed by blocking with 5% normal goat serum in 0.1% Triton-X 100 in 1×PBS at room temperature. 30 min after blocking, neurons were incubated with primary antibodies rabbit anti-GFP (1:1000, NB 600308, Novus Biologicals) and mouse anti-NeuN (1:500, MAB 377, Millipore) at 4° C. overnight. Neurons were then briefly washed with 1×PBS followed by incubation with secondary antibodies goat anti-rabbit Alexa Fluor 488 (1:500, A11008, Thermo Fisher/Invitrogen) and anti-mouse Alexa Fluor 568 (1:500, A21124, ThermoFisher/Invitrogen) together with DAPI (4′,6-diamidino-2-phenylindole) at room temperature for 60 min. Following secondary antibody incubation, neurons were washed with 1×PBS and fluorescent images were acquired using Nikon Ti2 eclipse fluorescent microscope (Nikon Instruments Inc., Melville, NY, USA). Antibody-enhanced UBE3A-YFP fluorescence intensities were determined from DAPI and NeuN double-positive individual neurons in drug-treated wells and normalized to neurons in untreated wells. All acquired images were analyzed by Nikon NIS-Elements software (Nikon Instruments Inc., Melville, NY, USA). Sigmoidal curve fitting for the dose response analysis was performed using GraphPad Prism software version 8.0 (GraphPad Software, La Jolla, CA, USA). The calculated EC50 values (potencies) and Y value top plateau (estimated efficacies) enables comparative analyses of the relative potency and efficacy of the identified compounds.

[4] = system: Ube3a-ATS; assay: Quantitative RT-PCR of Ube3a-ATS mRNA in cultured cortical neurons; format: cell-based, mouse; conditions: qPCR normalized to β-actin, after drug treatment
Procedure: as §1
(§2) Quantitative real-time PCR and topoisomerase-based DNA relaxation assay: Quantitative real-time PCR (qPCR) was performed using previously reported protocols. Briefly, total RNA was extracted from cultured cortical neurons carrying Ube3a^m+/pYFP after drug treatment using Direct-zol RNA kit (Zymo Research). cDNA pool was synthesized using 2 μg of total RNA and qScript cDNA Supermix (Quantabio). qPCR was performed using SsoAdvanced Universal SYBR green Supermix (Bio-rad). […] Relative quantity (RQ) was calculated after normalized ΔΔCt was calculated. […]

[5] = system: Ube3a-YFP mRNA; assay: Quantitative RT-PCR of Ube3a-YFP mRNA in cultured cortical neurons; format: cell-based, mouse; conditions: qPCR normalized to β-actin, after drug treatment
Procedure: as §1, §2

[6] = system: Snrpn; assay: Quantitative RT-PCR of Snrpn mRNA in cultured cortical neurons; format: cell-based, mouse; conditions: qPCR normalized to β-actin, after drug treatment
Procedure: as §1, §2

[7] = system: Snord116; assay: Quantitative RT-PCR of Snord116 mRNA in cultured cortical neurons; format: cell-based, mouse; conditions: qPCR normalized to β-actin, after drug treatment
Procedure: as §1, §2

[8] = system: paternal UBE3A; assay: Western blot of UBE3A protein (anti-Ube3a) in AS model (Ube3a^m-/p+) cortical neurons; format: cell-based, mouse; conditions: 72 hr; Topotecan 0.3 μM, PHA533533 1.0 μM, Compound X 0.5 μM, Compound Y 0.5 μM; versus DMSO-treated WT neurons
Procedure: as §1
shRNA knockdown and western blot analysis: Lentiviral shRNAs of Top1 (TRCN0000011884), CDK2 (TRCN0000023146), and CDK5 (TRCN0000009520) were generated using previously described techniques. Cultured cortical neurons were infected at DIV 3 and virus was removed the next day (DIV 4). […] Following secondary antibody incubation, the membranes were rinsed (4-5 times) with 1×TBS-T at room temperature for 1 hr and ECL (Bio-Rad) was used to visualize detected proteins using an Amersham Imager 600 (AI600, GE Life Sciences).

[9] = system: cultured mouse cortical neurons; format: cell-based
Procedure: Cytotoxicity test: Cytotoxicity of drugs was tested in cultured mouse cortical neurons in vitro. The manufacturer's protocol was followed to measure luminescence proportional to the number of dead cells using Cyto Tox-Glo assay (Promega). 72 hr after drug treatment, AAF-Glo substrates were directed added to the drug-treated (or 0.1% DMSO vehicle-treated) cortical neurons and incubated them at room temperature for 15 min. Luminescence produced by dead-cell protease activity was then measured.

[10] = target: T1, Top2a (Homo sapiens, UniProt P11388); assay: Topoisomerase-based DNA relaxation assay, Top2a (kDNA decatenation); format: biochemical; conditions: catenated versus decatenated kDNA on agarose gel
T1 construct: purchased TopoGEN
Procedure: Quantitative real-time PCR and topoisomerase-based DNA relaxation assay: Quantitative real-time PCR (qPCR) was performed using previously reported protocols. Briefly, total RNA was extracted from cultured cortical neurons carrying Ube3a^m+/pYFP after drug treatment using Direct-zol RNA kit (Zymo Research). cDNA pool was synthesized using 2 μg of total RNA and qScript cDNA Supermix (Quantabio). qPCR was performed using SsoAdvanced Universal SYBR green Supermix (Bio-rad). The primer sets were β-actin (forward, 5′-[…]-3′, SEQ ID NO:1; reverse, 5′-[…]-3, SEQ ID NO:2), YFP (forward, 5′-[…]-3′, SEQ ID NO:3; reverse, 5′-[…]-3′, SEQ ID NO:4), Ube3a-ATS (forward, 5′-[…]-3′, SEQ ID NO:5; reverse, 5′-[…]-3′, SEQ ID NO:6), Snrpn (forward, 5′-[…]-3′, SEQ ID NO:7; reverse, 5′-[…]-3′, SEQ ID NO:8), and Snord116 (forward, 5′-[…]-3′, SEQ ID NO:9; reverse, 5′-[…]-3′, SEQ ID NO:10). qPCR was performed using QuantStudio thermocycler (Thermo Fisher) with the following conditions: 95° C. for 5 min and followed by 40 cycles of 95° C. 10 sec, 60° C. 1 min. Relative quantity (RQ) was calculated after normalized ΔΔCt was calculated. Topoisomerase (Top)-based DNA relaxation assays were performed to test whether the drugs inhibited Top1, Top2a, and Top2b. Top1 and Top2a assay kits were purchased from TopoGEN, and Top2b enzyme was purchased from Inspiralis. All Top-based assays followed manufacturer protocols.

T1 sequence (P11388 whole entry): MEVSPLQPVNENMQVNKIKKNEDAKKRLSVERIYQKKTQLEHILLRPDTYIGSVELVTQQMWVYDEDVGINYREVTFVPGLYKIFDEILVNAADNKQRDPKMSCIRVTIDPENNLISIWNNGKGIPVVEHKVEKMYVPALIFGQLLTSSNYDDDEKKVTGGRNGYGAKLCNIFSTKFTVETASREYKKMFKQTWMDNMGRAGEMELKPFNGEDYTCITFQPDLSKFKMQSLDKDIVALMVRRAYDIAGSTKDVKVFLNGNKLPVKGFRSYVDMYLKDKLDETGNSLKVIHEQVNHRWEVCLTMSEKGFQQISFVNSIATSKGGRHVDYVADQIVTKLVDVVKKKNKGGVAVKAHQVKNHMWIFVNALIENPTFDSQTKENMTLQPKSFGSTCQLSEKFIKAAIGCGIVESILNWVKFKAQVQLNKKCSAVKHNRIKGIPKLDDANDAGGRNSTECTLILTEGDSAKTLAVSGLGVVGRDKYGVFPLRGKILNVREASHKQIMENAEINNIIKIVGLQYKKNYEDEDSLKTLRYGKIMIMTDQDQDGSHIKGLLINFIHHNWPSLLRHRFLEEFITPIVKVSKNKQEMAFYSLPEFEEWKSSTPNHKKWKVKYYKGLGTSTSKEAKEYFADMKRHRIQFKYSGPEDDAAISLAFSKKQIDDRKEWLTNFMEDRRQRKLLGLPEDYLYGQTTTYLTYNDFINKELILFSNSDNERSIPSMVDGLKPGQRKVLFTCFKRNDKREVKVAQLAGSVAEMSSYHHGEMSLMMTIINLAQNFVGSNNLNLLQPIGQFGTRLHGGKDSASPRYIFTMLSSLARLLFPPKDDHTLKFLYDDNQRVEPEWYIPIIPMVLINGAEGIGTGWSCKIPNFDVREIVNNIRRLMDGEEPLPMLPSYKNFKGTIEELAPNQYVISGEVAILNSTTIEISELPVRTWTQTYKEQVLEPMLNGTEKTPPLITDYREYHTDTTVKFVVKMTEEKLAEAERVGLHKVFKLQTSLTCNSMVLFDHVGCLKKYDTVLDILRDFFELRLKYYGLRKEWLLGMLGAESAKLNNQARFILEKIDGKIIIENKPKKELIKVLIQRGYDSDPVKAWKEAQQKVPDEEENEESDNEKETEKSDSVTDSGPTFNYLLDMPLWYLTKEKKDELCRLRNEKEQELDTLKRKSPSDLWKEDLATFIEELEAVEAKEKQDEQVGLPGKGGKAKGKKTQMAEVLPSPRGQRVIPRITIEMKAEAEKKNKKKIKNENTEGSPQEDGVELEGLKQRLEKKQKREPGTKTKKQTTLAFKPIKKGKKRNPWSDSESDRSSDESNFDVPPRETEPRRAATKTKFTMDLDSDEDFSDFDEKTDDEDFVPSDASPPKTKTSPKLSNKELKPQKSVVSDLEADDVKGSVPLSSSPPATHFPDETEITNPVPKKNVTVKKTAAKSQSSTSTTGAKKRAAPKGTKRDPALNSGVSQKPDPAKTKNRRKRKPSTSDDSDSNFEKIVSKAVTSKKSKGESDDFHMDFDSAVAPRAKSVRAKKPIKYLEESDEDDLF

Compound	UBE3A-YFP protein from the paternal allele (western blot) [1]	methylation level on histone H3 lysine 79 (H3K79) [2]	unsilencing of paternal Ube3a-YFP with CDK2 knocked down [1]	unsilencing of paternal Ube3a-YFP with CDK5 knocked down [1]	percent of neurons expressing UBE3A-YFP above threshold [3] [%]	unsilencing of paternal Ube3a-YFP by imaging, in words [3]	Ube3a-ATS mRNA [4]	mRNA of Ube3a-YFP [5]	Snrpn mRNA [6]	Snord116 mRNA [7]	UBE3A protein from the paternal allele in AS model neurons (western blot) [8]	inhibition of Top2a [10]	other results
CC(C)N(C[C@H]1O[C@@H](n2cnc3c(N)ncnc32)[C@H](O)[C@@H]1O)[C@H]1C[C@@H](CCc2nc3cc(C(C)(C)C)ccc3[nH]2)C1 [EPZ5676, reference compound]	did not appreciably unsilence paternal Ube3a-YFP	reduced methylation level on histone H3 lysine 79 (H3K79)	–	–	–	–	–	–	–	–	–	–	–
CC[C@@]1(O)C(=O)OCc2c1cc1n(c2=O)Cc2cc3c(CN(C)C)c(O)ccc3nc2-1 [topotecan, reference compound]	–	–	did not unsilence paternal Ube3a-YFP unless neurons were treated	further enhanced	37.3±3.7	unsilenced paternal UBE3A-YFP	significantly decreased	upregulated	decreased	decreased	unsilenced paternal UBE3A at levels that approached that of UBE3A levels in DMSO-treated neurons from WT mice	–	unsilencing of paternal Ube3a-YFP with Top1 knocked down ([1]; Top1 shRNA knockdown): occlude unsilencing; also recorded: occluded the ability; LC50 / cytotoxicity compared to topotecan, in words [9]: comparable LC50
C[C@H](C(=O)Nc1cc(C2CC2)[nH]n1)c1ccc(N2CCOC2=O)cc1 [Compound P5-A4, (S)—N-(5-cyclopropyl-1H-pyrazol-3-yl)-2-(4-(2-oxooxazolidin-3-yl)phenyl)propenamide]	did not appreciably unsilence paternal Ube3a-YFP	–	–	–	–	–	–	–	–	–	–	–	–
ICRF-193 [reference compound]	–	–	–	–	–	–	–	–	–	–	–	inhibits the relaxation of catenated kDNA	–
O=C(Cc1ccc2ccccc2c1)Nc1cc(C2CC2)[nH]n1 [PNU0292137]	–	–	–	–	–	could not produce appreciable increases	–	–	–	–	–	–	–
C[C@H](C(=O)Nc1cc(C2CC2)[nH]n1)c1ccc(N2CCCC2=O)cc1 [PHA533533]	increased UBE3A-YFP protein to levels approaching that of topotecan; also recorded: can produce UBE3A-YFP	reduced methylation level on histone H3 lysine 79 (H3K79)	did not unsilence paternal Ube3a-YFP unless neurons were treated	further enhanced	63.7±14.3	effectively unsilenced paternal Ube3a-YFP; also recorded: can unsilence paternal Ube3a-YFP	significantly decreased; also recorded: downregulates Ube3a-ATS	upregulated	decreased	decreased	unsilenced paternal UBE3A at levels that approached that of UBE3A levels in DMSO-treated neurons from WT mice	partially inhibited Top2a	potency (EC50) compared to topotecan, in words ([3]; dose response, normalized fluorescent intensity): slightly lower potency than topotecan
